Laboratory results taken from patent publication US6815170B1, “Methods for lymph node identification” (John Wayne Cancer Institute, priority 1999, dated 2004).
“Also recorded” adds a separate entry of the source.

Tests used:
[1] = system: malignant melanoma; conditions: liver and lung; cited from earlier work
[2] = system: sentinel lymph node; assay: Intraoperative lymphatic mapping / sentinel lymph node dissection with histologic evaluation for carbon particles; type: in vivo, Sprague-Dawley rats; conditions: for basins in which afferent lymphatic channel and stained (sentinel) node were identified: 0.04 cc intradermal, lower extremity, incision 5 min after injection
Source text: Twenty-two adult Sprague-Dawley rats weighing 300-500 g were obtained after receiving approval from the Animal Care and Use Committee at the Harbor-UCLA Research and Education Institute. All animals were obtained at least one day prior to planned procedures.
Isosulfan blue dye (Lymphazurin 1%) was obtained from Hirsch Industries, Inc. (Richmond, Va.). Carbon dye containing 6% carbon black (# 4415) was obtained from Sanford Corporation (Bellwood, Ill.) and either used alone at full strength or mixed with isosulfan blue and/or sterile normal saline in the concentrations shown in Table 1.
All mapping solutions containing ink were sterilized in an autoclave at 121° C. for 25 m, prior to injection.
All procedures were performed under general anesthesia. Rats were anesthetized with a mixture of ketamine (42.9 mg/kg), xylazine (8.6 mg/kg), and acepromazine (1.4 mg/kg). A half-dose of this mixture was readministered at 60 minutes and then every 30 minutes. Buprenorphine (0.01-0.05 mg/kg) was administered subcutaneously for postoperative analgesia.
The inguinal regions of the animals were shaved. A 29-gauge needle with a 1-cc tuberculin syringe was used to inject 0.04 cc of the mapping solution intradermally just below the medial aspect of the knee on the lower extremity. Five minutes later, and under sterile conditions, an incision was made over the region of the inguinal lymph nodes. […] The lymphatic was followed to the first stained lymph node. Further dissection was carried out to identify additional stained nodes. All stained nodes were removed and placed in formalin. Nonstained nodes in the same drainage basin were removed and fixed in a similar fashion, and analyzed for carbon particles. The identical procedure was performed on the contralateral extremity of each animal using an alternative mapping mixture.
Lymph nodes were placed in paraffin blocks, serially sectioned, and stained with hematoxylin and eosin (H and E). Each lymph node was evaluated by light microscopy for the presence of carbon particles.

## CCN(CC)CCNC(=O)c1ccc(I)cc1 [IDAB, N-(diethylaminoethyl)4-iodobenzamide]
[1]
  uptake by non-tumor tissue: taken up in high concentrations by non-melanoma cells in the liver and lung

## CCN(CC)c1ccc(C(=C2C=CC(=[N+](CC)CC)C=C2)c2cc(S(=O)(=O)[O-])ccc2S(=O)(=O)[O-])cc1.[Na+] [isosulfan blue dye, isosulfan blue]
[2]; listed as Isosulfan blue
  basins in which afferent lymphatic channel and stained (sentinel) node were identified: effectively identified the lymphatic channel and sentinel node(s); also recorded: clearly identified one sentinel node in each paired basin
[2]; listed as Isosulfan blue dye
  basins in which afferent lymphatic channel and stained (sentinel) node were identified: all 6
[2]; 6 basins
  total number of sentinel nodes: 8
